Results published in patent US8012929B2, “Peptides directed for diagnosis and treatment of amyloid-associated diseases” (Tel Aviv University Future Technology Development L.P., priority 2002, dated 2011).
Square brackets hold non-standard residues; d marks the D form. Peptide text beside a SMILES is read from it. Aib = CC(C)(N)C(=O)O

Assays:
[1] = molecular target: T1, CYP450 1A2 (Homo sapiens, UniProt P05177); assay: Human CYP450 screen 1A2; type: in vitro ADME
T1 sequence (P05177 1-516): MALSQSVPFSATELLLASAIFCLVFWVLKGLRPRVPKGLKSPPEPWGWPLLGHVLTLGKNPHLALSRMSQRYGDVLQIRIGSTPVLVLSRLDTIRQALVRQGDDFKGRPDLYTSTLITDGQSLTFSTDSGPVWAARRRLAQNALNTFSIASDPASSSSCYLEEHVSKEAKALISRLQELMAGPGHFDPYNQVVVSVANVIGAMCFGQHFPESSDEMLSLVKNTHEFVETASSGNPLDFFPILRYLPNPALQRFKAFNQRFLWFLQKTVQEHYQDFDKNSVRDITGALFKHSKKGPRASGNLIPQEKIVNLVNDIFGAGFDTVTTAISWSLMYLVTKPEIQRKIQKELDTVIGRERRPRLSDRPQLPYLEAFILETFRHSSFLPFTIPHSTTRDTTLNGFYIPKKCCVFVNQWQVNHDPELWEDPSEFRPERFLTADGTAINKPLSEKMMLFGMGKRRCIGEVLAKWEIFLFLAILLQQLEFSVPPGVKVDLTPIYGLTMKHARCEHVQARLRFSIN
Text: (§1) For the metabolic stability assay, Human cytochrom P450 (CYP450) screens were used. The cytochrom P450 isoenzymes, which are located in the intestines, liver, lung, kidney and brain, are involved in important drug interactions. Drug metabolism occurs in two phases—Phase I involves oxidation, reduction, and hydrolysis. Phase II involves synthesis and conjugation. The CYP 450 isoenzymes are involved in Phase I oxidative reactions. CYP 450 interactions generally result from one of two processes—Induction, where a substance stimulates the synthesis of the enzyme and metabolic capacity is increased, and inhibition, where competitive binding at an enzyme's binding site(s) occurs. A drug with a high affinity for an enzyme will slow the metabolism of any low affinity drug. CYP 3A3/4 is the most abundant CYP 450 isoenzyme in humans and is responsible for the metabolism of the widest range of drugs/substances. (CYP450) screens used were 1A2, 2C9, 2C19, 2D6 and 3A4.

[2] = molecular target: CYP450 3A4 (Homo sapiens, UniProt P08684); assay: Human CYP450 screen 3A4; type: in vitro ADME
Sequence of CYP450 3A4 (P08684 whole entry): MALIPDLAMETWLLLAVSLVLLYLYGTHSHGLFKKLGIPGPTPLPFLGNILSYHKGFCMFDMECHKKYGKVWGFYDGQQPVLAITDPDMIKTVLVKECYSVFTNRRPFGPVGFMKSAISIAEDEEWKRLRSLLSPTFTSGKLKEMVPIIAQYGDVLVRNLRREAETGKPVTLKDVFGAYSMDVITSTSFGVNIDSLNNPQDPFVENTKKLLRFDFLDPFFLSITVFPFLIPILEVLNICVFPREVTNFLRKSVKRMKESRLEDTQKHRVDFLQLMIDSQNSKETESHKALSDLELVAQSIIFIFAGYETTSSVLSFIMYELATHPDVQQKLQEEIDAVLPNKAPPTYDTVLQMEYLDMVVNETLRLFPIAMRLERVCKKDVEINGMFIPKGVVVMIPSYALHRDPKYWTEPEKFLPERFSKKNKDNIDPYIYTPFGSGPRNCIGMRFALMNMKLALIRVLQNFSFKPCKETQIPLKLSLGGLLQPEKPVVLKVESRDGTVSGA
Text: as §1

[3] = molecular target: T2, β-amyloid1-42 globulomers (Homo sapiens, UniProt P05067); assay: β-amyloid1-42 globulomer formation (6E10 immunoblot, densitometry); type: biochemical; conditions: 0.13 mM β-amyloid, 1:5 to 1:20 molar ratio, 18 hours at 37° C.
T2 construct: β-amyloid monomers (0.4 mM) were produced by dissolving the 1-42 peptide in 1,1,1,3,3,3-hexafluoroisopropanol; purchased Bachem (Bubendorf Switzerland)
T2 sequence (P05067 672-713): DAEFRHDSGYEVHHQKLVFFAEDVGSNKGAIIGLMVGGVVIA
Text: […] Solutions were then separated using a 15% Tris-Tricine gel, and transferred to a PVDF membrane, which was screened with a mouse anti β-amyloid monoclonal antibody (6E10; Signet, Dedham, Mass.)

[4] = test system: HepG2 cells; assay: Cytotoxicity assay in hepatocytes; type: cell-based; conditions: up to 2.5×10^−4 M, 3H-Thymidine incorporation and Alamar-Blue assays
Protocol: Cytotoxicity assay in hepatocytes—Following culture (37° C. in an atmosphere of 5% CO2 and 100% humidity), HepG2 cells (ATCC Accession No: HB-8065) were seeded at a density of 5000 cells/well in 96 well optical plate (Nunc, Rochester, N.Y.). Culture was maintained in the logarithmic phase throughout the experiment. One day after seeding, peptides were dissolved in DMSO (1:10) and added to the wells to achieve final concentrations of 2.5×10^−4−1×10^−8. Each plate column (8 wells) was used to test one peptide in one concentration. A day following peptide addition, ^3H-Thymidine was added to the cell culture, and two days following addition cells were harvested. ^3H-Thymidine incorporation to the DNA of proliferating cells was measured in Top Count NTX counter (Packard, Quebec, Canada). […] The indicator was incubated for 18 hours and fluorescence was measured with 544 nm excitation/590 nm emission wavelengths. Data was presented as the mean amount of Alamar-Blue fluorescence or ^3H-Thymidine CPM monitored per well. Average was calculated per plate column. For Alamar-Blue signals standard deviation (SD) was calculated, while for ^3H Thymidine signal, standard error (SE) was calculated. […] Equivocal results were analyzed using oneway (ANOVA) with Dunnett Multiple comparison Test.

[5] = molecular target: T3, hERG potassium channel (Homo sapiens, UniProt Q12809); assay: Functional hERG assay (patch clamp); type: cell-based
T3 construct: expressed in transfected cells
T3 sequence (Q12809 whole entry): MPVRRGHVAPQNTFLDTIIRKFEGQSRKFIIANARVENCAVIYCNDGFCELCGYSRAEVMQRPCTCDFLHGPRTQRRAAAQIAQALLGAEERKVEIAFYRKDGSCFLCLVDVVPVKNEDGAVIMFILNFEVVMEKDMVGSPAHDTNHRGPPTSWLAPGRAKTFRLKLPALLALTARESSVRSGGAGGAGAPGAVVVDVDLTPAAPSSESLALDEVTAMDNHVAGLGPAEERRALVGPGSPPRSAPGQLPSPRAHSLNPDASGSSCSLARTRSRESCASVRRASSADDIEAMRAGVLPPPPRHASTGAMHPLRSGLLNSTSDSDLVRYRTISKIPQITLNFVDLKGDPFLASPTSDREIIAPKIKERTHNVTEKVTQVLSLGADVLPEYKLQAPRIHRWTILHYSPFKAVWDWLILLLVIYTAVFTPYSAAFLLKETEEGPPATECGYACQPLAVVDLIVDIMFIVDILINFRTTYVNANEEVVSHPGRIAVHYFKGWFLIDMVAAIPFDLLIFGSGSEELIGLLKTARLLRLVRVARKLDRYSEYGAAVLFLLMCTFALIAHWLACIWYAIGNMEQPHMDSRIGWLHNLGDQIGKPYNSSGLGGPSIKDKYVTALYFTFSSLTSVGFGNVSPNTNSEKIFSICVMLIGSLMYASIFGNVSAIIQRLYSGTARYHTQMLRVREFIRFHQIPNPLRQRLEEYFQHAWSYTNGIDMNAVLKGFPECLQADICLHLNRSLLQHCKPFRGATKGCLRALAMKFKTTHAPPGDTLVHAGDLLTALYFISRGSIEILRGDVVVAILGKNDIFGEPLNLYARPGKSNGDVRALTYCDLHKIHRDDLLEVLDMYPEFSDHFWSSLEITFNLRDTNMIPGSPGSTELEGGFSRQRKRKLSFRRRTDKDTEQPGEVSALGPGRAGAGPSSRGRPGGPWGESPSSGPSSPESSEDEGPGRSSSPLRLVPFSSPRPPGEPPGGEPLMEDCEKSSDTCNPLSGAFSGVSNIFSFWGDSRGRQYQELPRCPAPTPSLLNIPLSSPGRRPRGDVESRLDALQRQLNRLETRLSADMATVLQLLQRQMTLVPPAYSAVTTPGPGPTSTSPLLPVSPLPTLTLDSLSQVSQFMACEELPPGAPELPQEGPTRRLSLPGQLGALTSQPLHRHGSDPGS
Protocol: Functional hERG assay—Compounds were tested in duplicate in a 3-point dose response curve on HEK cells stably expressing the hERG potassium channel (GenBank Accession No. AAD01946). Potassium current was measured using the patch clamp technique on a Molecular Devices Patch Express 7000. hERG channels were activated by 2 second pulses to +20 mV from a holding potential of −80 mV, and K^+ currents were recorded upon repolarization to −50 mV. This voltage-clamp pulse protocol was performed continuously during the experiment (vehicle control, test compound, washout, and positive control additions). An interpulse interval of 15 seconds allowed recovery from any residual inactivation. Compounds were incubated with cells between 3-8 minutes until the current reached a steady state level. After compounds were tested, they were washed out with continuous perfusion for 3 minutes, followed by application of positive control (10 uM Cisparide).

[6] = test system: neuronal primary cell cultures; assay: Neurotoxicity (5% assay), MTT and Calcein-AM; type: cell-based
Protocol: Neurotoxicity (5% assay)—Neural cells were grown in Poly-D-Lysine coated 96-well plates. Eighty μl medium containing 48.000 cells/well were added to each well plate containing 80 μl T.I. in the appropriate concentrations, or nutrition medium (control). Plates were kept at 37° C., 95% humidity and 5% CO2. Neurons, which begin to extend processes after a few hours in culture, were maintained in the same medium without change or addition of media for 8 days, until the end of the experiments. For Neurotoxicity, the MTT-assay was effected using a plate-reader (570 nm) for determining the culture viability, as described in Example 49. The MTT assay is based on the ability of a dehydrogenase enzyme from an active mitochondiria to produce a dark blue formazan product from the pale yellow MTT substrate, by cleaving the MTT tetrazolium rings. Since in the MTT-assay sometimes interference between the substance/drug applied and the generation of formazane crystals can be seen, it is necessary to introduce a second evaluation system. Therefore, the viability of cultures was determined with the Calcein-AM assay as well, as described in Neri et al., [Clin. Diagn. Lab Immunol. 1131-1135 (2001)], using an automated fluorescence plate-reader (485/535 nm). Calcein AM is a widely used green fluorescent cell marker, which is membrane-permeant and thus can be introduced into cells via incubation. […]

## CC(C)(NC(=O)[C@H](N)Cc1c[nH]c2ccccc12)C(=O)O [D-Trp-Aib] (H-[dW]-[Aib]-OH)
[1]
  activity in CYP450 screen: None of the results met significance criteria
[2]
  activity in CYP450 screen: None of the results met significance criteria
[3]
  amount of globulomers (densitometer analysis): about 45 % of the control
[4]
  cytotoxic effect on HepG2 cells: no cytotoxic effect
[5]; HEK cells stably expressing hERG
  effect on potassium channels: did not show any effect on potassium channels
[5]; human, HEK cells stably expressing the hERG potassium channel, read-out: IC50 for potassium current
  IC50: > 50 µM
[6]; MTT viability assay and Calcein AM assay
  cytotoxicity towards neuronal primary cell cultures: noncytotoxic
[6]; concentration of up to 150 μM
  neuronal viability compared to the untreated control: did not alter neuronal viability
